US10344025B2, “GLS1 inhibitors for treating disease” (Board of Regents, The University of Texas System, priority 2014, dated 2019)

What was measured:
A549 cells = assay: Proliferation Assay (A549 viability, Cell Titer Fluor, 72 hours); format: cell-based; details: Homo sapiens, A549, 72 h
How it was run: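 A549 cells seeded at 1000 cells/well, rested 24 h, then exposed to compound in 0.5% DMSO for 72 h at 37 °C. Viability read by Cell Titer Fluor fluorescence; IC50 from four-parameter logistic fit.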

[1] = biological target: purified recombinant human GAC (GLS1) (Homo sapiens (Human), UniProt O94925); assay: GLS1 Enzymatic Activity Assay (dual-coupled enzymatic assay, resorufin/Amplex UltraRed readout); format: biochemical;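 note: glutamate from GAC coupled via glutamate oxidase and peroxidase to resorufin, read as fluorescence (ex 530, em 590 nm) kinetically or at 20 min, four-parameter logistic IC50 fit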
Sequence of purified recombinant human GAC (GLS1) (O94925 other isoform, or with tags, fused parts or gaps): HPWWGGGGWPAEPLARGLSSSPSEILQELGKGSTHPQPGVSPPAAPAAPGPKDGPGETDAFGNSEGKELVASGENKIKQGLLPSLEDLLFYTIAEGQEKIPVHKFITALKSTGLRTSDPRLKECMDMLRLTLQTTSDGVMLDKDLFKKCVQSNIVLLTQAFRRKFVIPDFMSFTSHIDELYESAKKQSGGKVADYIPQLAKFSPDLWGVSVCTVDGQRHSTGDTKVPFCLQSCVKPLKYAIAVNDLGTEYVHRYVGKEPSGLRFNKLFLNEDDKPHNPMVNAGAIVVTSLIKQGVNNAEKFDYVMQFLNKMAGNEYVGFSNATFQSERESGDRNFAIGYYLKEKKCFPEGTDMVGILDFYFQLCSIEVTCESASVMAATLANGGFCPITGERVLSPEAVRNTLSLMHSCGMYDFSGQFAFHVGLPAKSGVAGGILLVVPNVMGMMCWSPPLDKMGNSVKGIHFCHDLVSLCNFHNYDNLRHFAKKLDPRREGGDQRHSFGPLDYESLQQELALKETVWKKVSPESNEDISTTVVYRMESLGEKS

SMILES | EC50 (A549 cells) | IC50 [1]
O=C(NCc1ccc(C(F)(F)F)cn1)c1cn(CC(F)CCc2nnc(C(=O)NCc3cc(OC(F)(F)F)ccc3F)s2)nn1 (stereo not shown) [Example 448, 5-{3-fluoro-4-[4-({[5-(trifluoromethyl)pyridin-2-yl]methyl}carbamoyl)-1H-1,2,3-triazol-1-yl]butyl}-N-{[2-fluoro-5-(trifluoromethoxy)phenyl]methyl}-1,3,4-thiadiazole-2-carboxamide] | < 0.1 µM | < 0.1 µM
O=C(NCc1cc(C(F)(F)F)ccn1)c1cn(CCC(F)Cn2cc(C(=O)NCc3ccccc3)nn2)nn1 (stereo not shown) [Example 450, N-benzyl-1-{2-fluoro-4-[4-({[4-(trifluoromethyl)pyridin-2-yl]methyl}carbamoyl)-1H-1,2,3-triazol-1-yl]butyl}-1H-1,2,3-triazole-4-carboxamide] | 0.1 to 0.5 µM | < 0.1 µM
O=C(NCc1cc(OC(F)(F)F)ccc1F)c1cn(CC(F)CCc2nnc(C(=O)NCc3cc(C(F)(F)F)ccn3)s2)nn1 (stereo not shown) [Example 451, 5-{3-fluoro-4-[4-({[2-fluoro-5-(trifluoromethoxy)phenyl]methyl}carbamoyl)-1H-1,2,3-triazol-1-yl]butyl}-N-{[4-(trifluoromethyl)pyridin-2-yl]methyl}-1,3,4-thiadiazole-2-carboxamide] | < 0.1 µM | < 0.1 µM
O=C(NCc1cc(OC(F)(F)F)ccc1F)c1cn(CCC(F)Cn2cc(C(=O)N[C@H](CO)c3ccccc3)nn2)nn1 (stereo partly drawn) [Example 452, 1-{2-fluoro-4-[4-({[2-fluoro-5-(trifluoromethoxy)phenyl]methyl}carbamoyl)-1H-1,2,3-triazol-1-yl]butyl}-N-[(1S)-2-hydroxy-1-phenylethyl]-1H-1,2,3-triazole-4-carboxamide] | 0.1 to 0.5 µM | < 0.1 µM
O=C(NCc1ccccc1F)c1cn(CCC(F)Cn2cc(C(=O)NCc3cc(C(F)(F)F)ccn3)nn2)nn1 (stereo not shown) [Example 454, 1-[2-fluoro-4-(4-{[(2-fluorophenyl)methyl]carbamoyl}-1H-1,2,3-triazol-1-yl)butyl]-N-{[4-(trifluoromethyl)pyridin-2-yl]methyl}-1H-1,2,3-triazole-4-carboxamide] | 0.1 to 0.5 µM | < 0.1 µM
O=C(NCC1CCOCC1)c1cn(CCC(F)Cn2cc(C(=O)NCc3cc(C(F)(F)F)ccn3)nn2)nn1 (stereo not shown) [Example 457, 1-(2-fluoro-4-{4-[(oxan-4-ylmethyl)carbamoyl]-1H-1,2,3-triazol-1-yl}butyl)-N-{[4-(trifluoromethyl)pyridin-2-yl]methyl}-1H-1,2,3-triazole-4-carboxamide] | 0.5 to 5 µM | 0.5 to 5 µM
O=C(NCc1ccccc1)c1cn(CCC(F)Cn2cc(C(=O)NCc3cc(C(F)(F)F)ccn3)nn2)nn1 (stereo not shown) [Example 460, 1-{4-[4-(benzylcarbamoyl)-1H-1,2,3-triazol-1-yl]-2-fluorobutyl}-N-{[4-(trifluoromethyl)pyridin-2-yl]methyl}-1H-1,2,3-triazole-4-carboxamide] | 0.1 to 0.5 µM | 0.1 to 0.5 µM
O=C(NCc1cccc(OC(F)(F)F)c1)c1cn(CCC(F)Cn2cc(C(=O)N[C@@H](CO)c3ccccc3)nn2)nn1 (stereo partly drawn) [Example 461, 1-{2-fluoro-4-[4-({[3-(trifluoromethoxy)phenyl]methyl}carbamoyl)-1H-1,2,3-triazol-1-yl]butyl}-N-[(1R)-2-hydroxy-1-phenylethyl]-1H-1,2,3-triazole-4-carboxamide] | 0.5 to 5 µM | 0.1 to 0.5 µM
O=C(NCc1cc(C(F)(F)F)ccn1)c1cn(CC(F)CCn2cc(C(=O)N[C@@H](CO)c3ccccc3)nn2)nn1 (stereo partly drawn) [Example 467, 1-[2-fluoro-4-(4-{[(1R)-2-hydroxy-1-phenylethyl]carbamoyl}-1H-1,2,3-triazol-1-yl)butyl]-N-{[4-(trifluoromethyl)pyridin-2-yl]methyl}-1H-1,2,3-triazole-4-carboxamide] | 0.1 to 0.5 µM | 0.1 to 0.5 µM
COc1cccc(CNC(=O)c2cn(CCC(F)Cn3cc(C(=O)NCc4cc(C(F)(F)F)ccn4)nn3)nn2)c1 (stereo not shown) [Example 468, 1-[2-fluoro-4-(4-{[(3-methoxyphenyl)methyl]carbamoyl}-1H-1,2,3-triazol-1-yl)butyl]-N-{[4-(trifluoromethyl)pyridin-2-yl]methyl}-1H-1,2,3-triazole-4-carboxamide] | < 0.1 µM | < 0.1 µM
O=C(NCc1ccc(OC(F)(F)F)cc1)c1cn(CCC(F)Cn2cc(C(=O)NCc3cc(C(F)(F)F)ccn3)nn2)nn1 (stereo not shown) [Example 469, 1-{2-fluoro-4-[4-({[4-(trifluoromethoxy)phenyl]methyl}carbamoyl)-1H-1,2,3-triazol-1-yl]butyl}-N-{[4-(trifluoromethyl)pyridin-2-yl]methyl}-1H-1,2,3-triazole-4-carboxamide] | < 0.1 µM | < 0.1 µM

The next lines start with the values.

EC50 (A549 cells) | IC50 [1] | SMILES
< 0.1 µM | < 0.1 µM | Cc1ccc(CNC(=O)c2cn(CC(F)CCc3nnc(C(=O)NCc4cc(OC(F)(F)F)ccc4F)s3)nn2)cn1 (stereo not shown) [Example 447, 5-[3-fluoro-4-(4-{[(6-methylpyridin-3-yl)methyl]carbamoyl}-1H-1,2,3-triazol-1-yl)butyl]-N-{[2-fluoro-5-(trifluoromethoxy)phenyl]methyl}-1,3,4-thiadiazole-2-carboxamide]
< 0.1 µM | < 0.1 µM | O=C(NCc1cc(C(F)(F)F)ccn1)c1cn(CC(F)CCc2nnc(C(=O)NCc3cc(OC(F)(F)F)ccc3F)s2)nn1 (stereo not shown) [Example 449, 5-{3-fluoro-4-[4-({[4-(trifluoromethyl)pyridin-2-yl]methyl}carbamoyl)-1H-1,2,3-triazol-1-yl]butyl}-N-{[2-fluoro-5-(trifluoromethoxy)phenyl]methyl}-1,3,4-thiadiazole-2-carboxamide]
0.1 to 0.5 µM | < 0.1 µM | O=C(NCc1cc(OC(F)(F)F)ccc1F)c1cn(CCC(F)Cn2cc(C(=O)N[C@@H](CO)c3ccccc3)nn2)nn1 (stereo partly drawn) [Example 453, 1-{2-fluoro-4-[4-({[2-fluoro-5-(trifluoromethoxy)phenyl]methyl}carbamoyl)-1H-1,2,3-triazol-1-yl]butyl}-N-[(1R)-2-hydroxy-1-phenylethyl]-1H-1,2,3-triazole-4-carboxamide]
< 0.1 µM | < 0.1 µM | O=C(NCc1cccc(C(F)(F)F)c1)c1cn(CCC(F)Cn2cc(C(=O)NCc3cc(C(F)(F)F)ccn3)nn2)nn1 (stereo not shown) [Example 455, 1-{2-fluoro-4-[4-({[3-(trifluoromethyl)phenyl]methyl}carbamoyl)-1H-1,2,3-triazol-1-yl]butyl}-N-{[4-(trifluoromethyl)pyridin-2-yl]methyl}-1H-1,2,3-triazole-4-carboxamide]
< 0.1 µM | < 0.1 µM | O=C(NCC1CCCCC1)c1cn(CCC(F)Cn2cc(C(=O)NCc3cc(C(F)(F)F)ccn3)nn2)nn1 (stereo not shown) [Example 456, 1-(4-{4-[(cyclohexylmethyl)carbamoyl]-1H-1,2,3-triazol-1-yl}-2-fluorobutyl)-N-{[4-(trifluoromethyl)pyridin-2-yl]methyl}-1H-1,2,3-triazole-4-carboxamide]
0.1 to 0.5 µM | 0.1 to 0.5 µM | C[C@H](NC(=O)c1cn(CCC(F)Cn2cc(C(=O)NCc3cc(C(F)(F)F)ccn3)nn2)nn1)c1ccccc1 (stereo partly drawn) [Example 458, 1-[2-fluoro-4-(4-{[(1S)-1-phenylethyl]carbamoyl}-1H-1,2,3-triazol-1-yl)butyl]-N-{[4-(trifluoromethyl)pyridin-2-yl]methyl}-1H-1,2,3-triazole-4-carboxamide]
0.1 to 0.5 µM | < 0.1 µM | O=C(NCc1ccc(F)cc1)c1cn(CCC(F)Cn2cc(C(=O)NCc3cc(C(F)(F)F)ccn3)nn2)nn1 (stereo not shown) [Example 459, 1-[2-fluoro-4-(4-{[(4-fluorophenyl)methyl]carbamoyl}-1H-1,2,3-triazol-1-yl)butyl]-N-{[4-(trifluoromethyl)pyridin-2-yl]methyl}-1H-1,2,3-triazole-4-carboxamide]
0.1 to 0.5 µM | < 0.1 µM | O=C(NCc1cccc(OC(F)(F)F)c1)c1cn(CCC(F)Cn2cc(C(=O)N[C@H](CO)c3ccccc3)nn2)nn1 (stereo partly drawn) [Example 462, 1-{2-fluoro-4-[4-({[3-(trifluoromethoxy)phenyl]methyl}carbamoyl)-1H-1,2,3-triazol-1-yl]butyl}-N-[(1S)-2-hydroxy-1-phenylethyl]-1H-1,2,3-triazole-4-carboxamide]
< 0.1 µM | < 0.1 µM | O=C(NCc1cccc(OC(F)(F)F)c1)c1cn(CC(F)CCc2nnc(C(=O)NCc3cc(C(F)(F)F)ccn3)s2)nn1 (stereo not shown) [Example 463, 5-{3-fluoro-4-[4-({[3-(trifluoromethoxy)phenyl]methyl}carbamoyl)-1H-1,2,3-triazol-1-yl]butyl}-N-{[4-(trifluoromethyl)pyridin-2-yl]methyl}-1,3,4-thiadiazole-2-carboxamide]
< 0.1 µM | < 0.1 µM | O=C(NCc1cccc(OC(F)(F)F)c1)c1cn(CC(F)CCc2nnc(C(=O)NCc3ccc(C(F)(F)F)cn3)s2)nn1 (stereo not shown) [Example 464, 5-{3-fluoro-4-[4-({[3-(trifluoromethoxy)phenyl]methyl}carbamoyl)-1H-1,2,3-triazol-1-yl]butyl}-N-{[5-(trifluoromethyl)pyridin-2-yl]methyl}-1,3,4-thiadiazole-2-carboxamide]
< 0.1 µM | < 0.1 µM | O=C(NCc1cc(OC(F)(F)F)ccc1F)c1cn(CC(F)CCc2nnc(C(=O)NCc3ccc(C(F)(F)F)cn3)s2)nn1 (stereo not shown) [Example 465, 5-{3-fluoro-4-[4-({[2-fluoro-5-(trifluoromethoxy)phenyl]methyl}carbamoyl)-1H-1,2,3-triazol-1-yl]butyl}-N-{[5-(trifluoromethyl)pyridin-2-yl]methyl}-1,3,4-thiadiazole-2-carboxamide]
< 0.1 µM | < 0.1 µM | O=C(NCc1cccc(F)c1)c1cn(CCC(F)Cn2cc(C(=O)NCc3cc(C(F)(F)F)ccn3)nn2)nn1 (stereo not shown) [Example 466, 1-[2-fluoro-4-(4-{[(3-fluorophenyl)methyl]carbamoyl}-1H-1,2,3-triazol-1-yl)butyl]-N-{[4-(trifluoromethyl)pyridin-2-yl]methyl}-1H-1,2,3-triazole-4-carboxamide]
